# According to patent EP0791004B1, “ACYLATED BENZYLGLYCOSIDES AS INHIBITORS OF SMOOTH MUSCLE CELL PROLIFERATION” (AMERICAN HOME PRODUCTS CORPORATION, priority 1994, dated 1996):
# Tested on: Porcine Smooth Muscle Cell
# Test: Smooth muscle cell proliferation, 3H thymidine incorporation (serum stimulated)
# Format: cell-based
# Details: for IC50: 3H thymidine incorporation, read-out: Porcine Smooth Muscle Cell Antiproliferation IC50
# Procedure: The ability of the compounds of the present invention to inhibit smooth muscle cell proliferation was established using isolated aortic cells. Porcine aortas were received from a local slaughterhouse and were iced during transit. The aorta was scrupulously cleansed of fatty tissue and rinsed in sterile phosphate-buffered saline with 2% antibiotic/antimycotic (Gibco catalog # 600 - 5240 AG). The tissue was then digested in 10 - 15 mL of "Enzyme Mixture" containing collagenase type I, 165 U/mL; elastase type III, 15 U/mL; BSA, 2 mg/mL; and soybean trypsin inhibitor, 0.375 mg/mL followed by incubation at 37 °C under 5% CO2 for 10 - 15 min. After this treatment, the outer surface adventitia was easily removed by peeling with forceps. The aorta was then longitudinally cut and laid open and the endothelial layer was removed by scraping.
# The medial layer of cells was rinsed in enzyme solution, and placed in a new 100 mm dish with 10 mL of enzyme solution. The aorta was minced using a fine pair of scissors and digested for 2 - 3 h at 37 °C in 30 mL of fresh enzyme solution. After digestion, the tissue was homogenized using a sterile Pasteur pipette with a fire polished tip or an eppendorf pipetter with a 200 - 1000 µL sterile pipette tip. The suspension was then centrifuged for 10 minutes at 8000 rpm and the pellet was suspended in 4 - 6 mL of fresh medium and plated onto 4 - 6 100 mm flasks with vented caps. Cells were allowed to grow to confluence and split using 0.25 % trypsin. Cells were evaluated for purity and overall quality using antibody to SMC actin.
# Cells were assayed in early passage (generally passage 3 - 7) at sub-confluent conditions. Cultures were grown in 16 mm (24 well) multi-well culture dishes in medium 199 supplemented with 10% fetal bovine serum and 2% antibiotic/ antimycotic. At sub-confluence, the cells were placed in a defined serum free medium (AIM-V; Gibco) for 24 - 48 h prior to initiating the experimental protocol.
# Compounds were added to each well at 50 fold dilution (20 µL / well) and the plates were incubated for 24 - 36 h at 37 °C in 5% CO2. Compounds were initially dissolved in 50% ethanol and serially diluted into media. Compounds were routinely assayed at concentrations from 1 to 100 µM. As a control, grade II porcine intestinal mucosal heparin (sodium salt) from Sigma (H-7005) was routinely assayed in all cell preparations at concentrations from 0.1 to 100 µg/mL.
# At the completion of the experiment, plates were placed on ice, washed three times with ice cold phosphate buffered saline (PBS) and incubated in ice cold 10% trichloroacetic acid (TCA) for 30 minutes to remove acid soluble proteins. Solution was transferred to scintillation vials containing 0.4 N HCl (500 µL/vial to neutralize NaOH) and each well was rinsed two times with water (500 µL) for a total volume of 2 mL/vial.
# Data was obtained, in triplicate, for both control and experimental samples. Control (100%) data was obtained from maximally stimulated cells, as the result of growth factor or serum stimulation. Experimental data was obtained from cells maximally stimulated with growth factor or serum and treated with compound. Data was expressed as a percent of control from which a percent inhibition or IC50 could be determined.
# [1] = Sus scrofa, read-out: Porcine Smooth Muscle Cell Antiproliferation (% Inhibition at x concentration)
compound,measurement,setting,value
"CC(=O)OC[C@H]1O[C@H](O[C@H]2[C@H](OC(C)=O)[C@@H](OC(C)=O)[C@H](OCc3ccc(C)c(NC(=O)c4cccc([N+](=O)[O-])c4)c3)O[C@@H]2COC(C)=O)[C@H](OC(C)=O)[C@@H](OC(C)=O)[C@@H]1OC(C)=O [Example 4, N-[5-(Hepta-O-acetyl-β-D-maltosyloxymethyl)-2-methylphenyl]-3-nitrobenzamide]",inhibition at 50 µg/mL,[1],13%
"CC(=O)OC[C@H]1O[C@H](O[C@H]2[C@H](OC(C)=O)[C@@H](OC(C)=O)[C@H](OCc3ccc(N)c(C)c3)O[C@@H]2COC(C)=O)[C@H](OC(C)=O)[C@@H](OC(C)=O)[C@@H]1OC(C)=O [Example 29, 4-(Hepta-O-acetyl-β-D-maltosyloxymethyl)-2-methylphenylamine]",inhibition at 40 µM,[1],70%
"N-{3-[2-(Hepta-O-acetyl-β-D-maltosyloxymethyl)-6-methylphenylcarbamoyl]phenyl}-3,5-di-tert-butyl-4-hydroxybenzamide [Example 7]",IC50,,185 µM
Butane-1-sulfonic Acid N-[5-(Hepta-O-acetyl-β-D-maltosyloxymethyl)-2-methylphenyl]amide [Example 28],IC50,,9 µM
"CCC(=O)OC[C@H]1O[C@H](O[C@H]2[C@H](OC(=O)CC)[C@@H](OC(=O)CC)[C@H](OCc3ccc(C)c(N(C(=O)CC)S(=O)(=O)c4ccc(N(C(=O)CC)S(C)(=O)=O)cc4)c3)O[C@@H]2COC(=O)CC)[C@H](OC(=O)CC)[C@@H](OC(=O)CC)[C@@H]1OC(=O)CC [Example 33, N-Propionyl-4-[propionyl(methanesulfonyl)amino]-N-[5-(hepta-O-propionyl-β-D-maltosyloxymethyl)-2-methylphenyl]benzenesulfonamide]",inhibition at 20 µM,"Sus scrofa, at 20 µM, read-out: Porcine Smooth Muscle Cell Antiproliferation (% Inhibition at x concentration)",30%
"CC(=O)OC[C@H]1O[C@H](O[C@H]2[C@H](OC(C)=O)[C@@H](OC(C)=O)[C@H](OCc3ccc(N(S(=O)(=O)c4ccc([N+](=O)[O-])cc4)S(=O)(=O)c4ccc([N+](=O)[O-])cc4)c(C)c3)O[C@@H]2COC(C)=O)[C@H](OC(C)=O)[C@@H](OC(C)=O)[C@@H]1OC(C)=O [Example 31, N-[4-(Hepta-O-acetyl-β-D-maltosyloxymethyl)-2-methylphenyl]-4-nitro-N-(4-nitrophenylsulfonyl)benzenesulfonamide]",inhibition at 100 µM,"Sus scrofa, at 100 µM, read-out: Porcine Smooth Muscle Cell Antiproliferation (% Inhibition at x concentration)",37%
"CC(=O)OC[C@H]1O[C@@H](OCc2ccc(C)c(NC(=O)c3cccc(N)c3)c2)[C@H](OC(C)=O)[C@@H](OC(C)=O)[C@@H]1OC(C)=O [Example 2, 3-Amino-N-[2-methyl-5-(2,3,4,6-tetra-O-acethyl-β-D-glucopyranosyloxymethyl)phenyl]benzamide]",inhibition at 50 µg/mL,[1],23%
"CC(=O)OC[C@H]1O[C@H](O[C@H]2[C@H](OC(C)=O)[C@@H](OC(C)=O)[C@H](OCc3ccc(C)c(NS(=O)(=O)c4ccc(C)cc4)c3)O[C@@H]2COC(C)=O)[C@H](OC(C)=O)[C@@H](OC(C)=O)[C@@H]1OC(C)=O [Example 24, N-[5-(Hepta-O-acetyl-β-D-maltosyloxymethyl)-2-methylphenyl]-4-methylbenzenesulfonamide]",inhibition at 40 µM,[1],61%
"CC(=O)OC[C@H]1O[C@H](O[C@H]2[C@H](OC(C)=O)[C@@H](OC(C)=O)[C@H](OCc3ccc(C)c(NC(=O)c4cccc(N)c4)c3)O[C@@H]2COC(C)=O)[C@H](OC(C)=O)[C@@H](OC(C)=O)[C@@H]1OC(C)=O [Example 5, N-[5-(Hepta-O-acetyl-β-D-maltosyloxymethyl)-2-methylphenyl]-3-aminobenzamide]",inhibition at 50 µg/mL,[1],44%
"CC(=O)OC[C@H]1O[C@@H](OCc2ccc(C)c(NC(=O)c3cccc([N+](=O)[O-])c3)c2)[C@H](OC(C)=O)[C@@H](OC(C)=O)[C@@H]1OC(C)=O [Example 1, N-[2-Methyl-5-(2,3,4,6-tetra-O-acetyl-β-D-glucopyranosyloxymethyl)phenyl]-3-nitrobenzamide]",inhibition at 50 µg/mL,[1],79%
